# The source made the active and inactive calls. The rule behind the calls is not given here.
# Columns and labels:
# [1] = Modulation of basal activity of HCMV US28 expressed in tetracyclin-induced HEK293 cells assessed as change in inositol phosphate accumulation using [3H]-myo-inositol by scintillation proximity assay; assay type: cell-based; conditions: Human betaherpesvirus 5, HEK293
# HEK293 [2] = assay: Modulation of basal activity of HCMV US28 expressed in tetracyclin-induced HEK293 cells assessed as change in inositol phosphate accumulation at 10 uM using [3H]-myo-inositol by scintillation proximity assay relative to control; assay type: cell-based; conditions: Human betaherpesvirus 5
# HEK293 [3] = assay: Displacement of [125I]-CCL2 from HCMV US28 expressed in HEK293 cells at 10 uM after 3 hrs by gamma counting method relative to control; assay type: cell-based; conditions: Human betaherpesvirus 5
# [4] = Displacement of [125I]-CCL2 from HCMV US28 expressed in HEK293 cells after 3 hrs by gamma counting method; assay type: cell-based, Human betaherpesvirus 5
# HEK293 [5] = assay: Modulation of basal activity of HCMV US28 delta300 mutant expressed in tetracyclin-induced HEK293 cells assessed as change in inositol phosphate accumulation at 10 uM using [3H]-myo-inositol by scintillation proximity assay relative to control; assay type: cell-based; conditions: Human betaherpesvirus 5
# [6] = Modulation of basal activity of HCMV US28 delta300 mutant expressed in tetracyclin-induced HEK293 cells assessed as change in inositol phosphate accumulation using [3H]-myo-inositol by scintillation proximity assay; assay type: cell-based; conditions: Human betaherpesvirus 5, HEK293
# HEK293 [7] = assay: Effect on inositol phosphate accumulation in HEK293 cells at 10 uM using [3H]-myo-inositol by scintillation proximity assay; assay type: cell-based; conditions: human, hek293, 10 µM
# [8] = Agonist activity at HCMV US28 expressed in African green monkey COS7 cells assessed as increase in inositol phosphate accumulation using [3H]-myo-inositol after 90 mins by scintillation proximity assay; assay type: cell-based; conditions: Human betaherpesvirus 5, COS-7
# HEK293 [9] = assay: Displacement of [125I]-CX3CL1 from HCMV US28 expressed in HEK293 cells at 10 uM after 3 hrs by gamma counting method relative to control; assay type: cell-based; conditions: Human betaherpesvirus 5
# HEK293 [10] = assay: Displacement of [125I]-CCL4 from HCMV US28 expressed in HEK293 cells at 10 uM after 3 hrs by gamma counting method relative to control; assay type: cell-based; conditions: Human betaherpesvirus 5
# [11] = Inverse agonist activity at HCMV US28 expressed in African green monkey COS7 cells assessed as inhibition of inositol phosphate accumulation using [3H]-myo-inositol after 90 mins by scintillation proximity assay; assay type: cell-based; conditions: Human betaherpesvirus 5, COS-7
# [12] = Inverse agonist activity at HCMV US28 expressed in African green monkey COS7 cells assessed as inhibition of inositol phosphate accumulation using [3H]-myo-inositol by liquid scintillation counting method; assay type: cell-based; conditions: Human betaherpesvirus 5, COS-7
Compound,EC50 ([1]; read-out: EC50) [nM],EC50 ([1]; read-out: pEC50 (converted)) [nM],Efficacy (HEK293 [2]) [%],Efficacy (HEK293 [3]) [%],Efficacy (HEK293 [5]) [%],EC50 ([6]; read-out: EC50) [nM],EC50 ([6]; read-out: pEC50 (converted)) [nM],further results
Cc1nc2ccccc2n1CC1CCN(CC(=O)Nc2cc(C(F)(F)F)ccc2Cl)CC1,344,316,-43,24,,,,IC50 [4]: 2990 nM; pIC50 [4]: 5.52
N#Cc1c(CN2CCN(CC(=O)Nc3ccccc3Cl)CC2)cn2ccccc12,67,63.1,-15,,,,,
Cc1cc2ncn(CC3CCN(CC(=O)Nc4ccccc4C(F)(F)F)CC3)c2cc1C,80700,79400,-12,,54,19800,20000,
CCc1ccc(-c2nc(CN3CCN(CC(=O)NC4CC4)CC3)cs2)cc1,,,,,51,11000,10000,
Cc1ccc2nc(CN3CCN(CC(=O)Nc4ccc(F)cc4)CC3)cc(=O)n2c1,,,-10,,,,,
Cc1ccc(NC(=O)CN2CCC(Cn3cnc4ccccc43)CC2)cc1Cl,254,251,21,71,50,182,200,IC50 [4]: 1520 nM; pIC50 [4]: 5.82
O=C(CN1CCN(Cc2csc3ccccc23)CC1)NC1CCCC1,,,,,56,> 10000,< 10000,
Cn1c(CN2CCN(CC(=O)Nc3ccc(F)cc3F)CC2)nc2ccccc21,133,126,-15,6,75,9880,10000,
CNC(=O)NC(=O)CN1CCC(Cn2c(C)nc3ccccc32)CC1,,,,0,,,,
O=C(CN1CCC(Cn2cnc3ccccc32)CC1)Nc1nccs1,,,,5,,,,
Cc1ncc(CN2CCN(CC(=O)Nc3ccc(F)cc3)CC2)s1,,,-20,,,,,
O=C(CN1CCN(Cc2csc(-c3ccccc3)n2)CC1)Nc1ccc(F)cc1,,,-17,,,,,
O=C(CN1CCN(Cc2nc(-c3ccc(F)cc3)no2)CC1)Nc1ccc(F)cc1,3040,3020 to 3160,-54,,-23,1140,1260,Activity (HEK293 [7]): Toxic
O=C(CN1CCN(Cc2nc(-c3cccc(C(F)(F)F)c3)no2)CC1)NC1CCCCC1,19100,20000,-23,,,,,
O=C(CN1CCN(CN2C(=O)NC3(CCCCC3)C2=O)CC1)Nc1ccc(OC(F)(F)F)cc1,536,501,-12,,,,,
Cc1cc2ncn(CC3CCN(CC(=O)Nc4ccc5c(c4)OCO5)CC3)c2cc1C,,,,,58,1520,1580,
O=C(CN1CCN(Cc2nc3ccccc3n2Cc2ccccc2)CC1)Nc1ccccc1F,9370,10000,-20,,,,,
O=C(CN1CCC(Cn2cnc3ccccc32)CC1)Nc1nc2ccc(F)cc2s1,,,,20,,,,IC50 [4]: > 10000 nM
O=C(CN1CCN(Cc2nc3ccccc3[nH]2)CC1)Nc1ccc(F)cc1F,,,,-7,,,,
COc1ccc(-c2csc(NC(=O)CN3CCN(Cc4ccc5c(c4)OCO5)CC3)n2)cc1,1800,2000,-30,,,,,
O=C(CN1CCN(Cc2cccc3ccccc23)CC1)Nc1ccc2c(c1)OCO2,39,39.8,-24,,53,> 10000,< 10000,

Compound,EC50 ([1]; read-out: EC50) [nM],EC50 ([1]; read-out: pEC50 (converted)) [nM],Efficacy (HEK293 [2]) [%],Efficacy (HEK293 [3]) [%],Efficacy (HEK293 [5]) [%],EC50 ([6]; read-out: EC50) [nM],EC50 ([6]; read-out: pEC50 (converted)) [nM],further results
O=C(CN1CCC(C(=O)N2CCN(c3ccc(F)cc3)CC2)CC1)Nc1ccc(F)cc1,1570,1550 to 1580,-32,,,,,
Cc1cc(C)n(CC2CCN(CC(=O)N3CCc4ccccc43)CC2)n1,,,,,76,> 10000,< 10000,
Cc1nc2ccccc2n1CC1CCN(CC(=O)NCCc2ccccc2)CC1,,,,,107,1800,2000,IC50 [4]: 5290 nM
Cc1nc2ccccc2n1CC1CCN(CC(=O)Nc2cccnc2)CC1,,,,-2,,,,
CC(=O)c1ccc(N2CCN(Cc3nc4scc(-c5ccccc5)c4c(=O)[nH]3)CC2)cc1,,,,,,,,EC50 [8]: 950 nM
Cn1c(CN2CCN(CC(=O)Nc3ccc(OC(F)(F)F)cc3)CC2)nc2ccccc21,,,,7,59,3360,3160,
COC(=O)c1ccc(NC(=O)CN2CCC(Cn3c(C)nc4ccccc43)CC2)cc1,,,,32,70,884,794,IC50 [4]: 9560 nM; pIC50 [4]: 5.02
O=C(CN1CCC(Cn2c(C(F)(F)F)nc3ccccc32)CC1)Nc1ccccc1C(F)(F)F,1140,1260,-28,,,,,
Cc1cc2ncn(CC3CCN(CC(=O)NCc4ccc(F)cc4)CC3)c2cc1C,33,31.6,-16,25,,,,IC50 [4]: > 10000 nM
NC(=O)c1c(NC(=O)CN2CCN(Cc3ccc4c(c3)OCO4)CC2)sc2c1CCCC2,89,100,-31,,,,,
O=C(CN1CCC(Cn2cnc3ccccc32)CC1)N1CCN(c2ccccc2)CC1,3890,3980,-27,,77,4800,5010,
Cc1nc2ccccc2n1CC1CCN(CC(=O)Nc2ccc(F)cc2F)CC1,985,1000,-39,10,,,,inhibition (HEK293 [9]): inactive; inhibition (HEK293 [10]): 10%; EC50 [11]: 1760 nM
O=C(CN1CCN(CC2CCCCC2)CC1)Nc1ccc(F)cc1,,,-15,,,,,
CC(C(=O)Nc1sccc1C(N)=O)N1CCN(Cc2nc3ccccc3s2)CC1 (centres undefined),3840,3980,-46,,,,,
Cc1sc2nc(CN3CCN(CC(=O)NC4CCC(C)CC4)CC3)[nH]c(=O)c2c1C (centres undefined),,,,,118,1560,1580,inhibition (HEK293 [9]): 32%; inhibition (HEK293 [3]): Active
Cc1nc2ccccc2n1CC1CCN(CC(=O)Nc2ccc(OC(F)(F)F)cc2)CC1,269,251,26,78,86,103,100,inhibition (HEK293 [9]): 32%; IC50 [4]: 2110 nM; pIC50 [4]: 5.68
Cc1nc2ccccc2n1CC1CCN(Cc2ccc(F)c(F)c2)CC1,,,,46,93,1480,1580,IC50 [4]: 5260 nM; pIC50 [4]: 5.28
O=C(CN1CCC(Cn2cnc3ccccc32)CC1)Nc1ccccn1,,,,10,,,,
N#CC(CCCN1CCC(O)(c2ccc(Cl)cc2)CC1)(c1ccccc1)c1ccccc1 [BERLEX COMPOUND],10000,10000,-31,60,99,860,794,inhibition (HEK293 [9]): inactive; EC50 [12]: 3500 nM; inhibition (HEK293 [10]): 65%
NC(=O)c1ccc(NC(=O)CN2CCC(Cn3c(COc4ccccc4)nc4ccccc43)CC2)cc1,,,,,77,7960,7940,
NC(=O)c1ccc(NC(=O)CN2CCC(Cn3cnc4ccccc43)CC2)cc1,,,,-4,,,,
